These results are taken from paper PMC6422167 (ChemMedChem, 2018).

Read-outs that look alike come from different tables or passages of the source. A value given as a limit tells only on which side of the number the result lay.

Assay [1] concerns the target T1, σ2 receptor (Rattus norvegicus, UniProt Q5U3Y7).
T1 sequence (Q5U3Y7 1-176): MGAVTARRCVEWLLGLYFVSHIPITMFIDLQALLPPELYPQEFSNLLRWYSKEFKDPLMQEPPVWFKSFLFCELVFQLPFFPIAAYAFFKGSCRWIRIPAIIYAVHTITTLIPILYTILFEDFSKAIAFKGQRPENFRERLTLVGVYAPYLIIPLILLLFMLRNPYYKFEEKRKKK
Description: σ2 receptor binding affinity, competition against [3H]DTG. To be noted: for Selectivity ratio VAChT/ σ2: ratio of Ki values, Table 2; for Ki: read-out: Ki σ2, homogenate of rat liver, tested as oxalate, mean ± SD.

For assay [2], the target named is T2, σ1 receptor (Cavia porcellus, UniProt Q60492). Description: σ1 receptor binding affinity, competition against. The note with it: for Selectivity ratio VAChT/ σ1: ratio of Ki values, Table 2; for Ki: read-out: Ki σ1, homogenate of guinea pig brain, tested as oxalate, mean ± SD. Also on record: species or system guinea pig.
T2 sequence (Q60492 whole entry): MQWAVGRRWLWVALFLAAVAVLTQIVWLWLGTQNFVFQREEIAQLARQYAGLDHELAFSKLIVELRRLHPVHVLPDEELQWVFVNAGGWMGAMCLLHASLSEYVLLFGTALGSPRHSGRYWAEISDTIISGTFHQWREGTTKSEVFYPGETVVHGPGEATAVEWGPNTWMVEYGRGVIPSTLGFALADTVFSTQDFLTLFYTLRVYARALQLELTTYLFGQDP
Assay [3] has as its target T1, σ2 receptor. To be noted: read-out: Ki σ2; reference σ1 ligand; cited from earlier work.
Assay [4] deals with T2, σ1 receptor. The note with it: read-out: Ki σ1, cited from earlier work.
Another assay deals with T3, human VAChT (Homo sapiens, UniProt Q16572).
T3 sequence (Q16572 1-532): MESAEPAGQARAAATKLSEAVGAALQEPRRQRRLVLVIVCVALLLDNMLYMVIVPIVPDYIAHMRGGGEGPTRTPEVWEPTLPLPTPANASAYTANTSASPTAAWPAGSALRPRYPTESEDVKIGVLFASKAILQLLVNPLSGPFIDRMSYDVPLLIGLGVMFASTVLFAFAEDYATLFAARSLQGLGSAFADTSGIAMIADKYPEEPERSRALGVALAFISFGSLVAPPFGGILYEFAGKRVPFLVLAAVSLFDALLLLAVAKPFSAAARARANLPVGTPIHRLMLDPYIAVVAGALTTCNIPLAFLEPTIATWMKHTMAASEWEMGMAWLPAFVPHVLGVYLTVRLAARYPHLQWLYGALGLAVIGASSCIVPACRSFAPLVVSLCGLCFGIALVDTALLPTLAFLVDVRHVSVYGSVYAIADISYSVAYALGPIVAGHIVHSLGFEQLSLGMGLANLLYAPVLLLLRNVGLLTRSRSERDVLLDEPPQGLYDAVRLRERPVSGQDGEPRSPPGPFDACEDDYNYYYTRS
The note with it: read-out: Ki VAChT; reference ligand; cited from earlier work.

For `CSc1ccc(C(=O)C2CCN(C3Cc4ccccc4CC3O)CC2)cc1` (racemic) [(±)-8, (±)-(1-(3-Hydroxy-1,2,3,4-tetrahydronaphthalen-2-yl)piperidin-4-yl)(4-(methylthio)phenyl)methanone], at σ2 receptor [1], the “Selectivity ratio VAChT/ σ2” value is recorded as > 420; the Ki (commonly the dissociation constant of the complex between target and ligand, obtained from inhibition or displacement) was > 1000 nM. For the same compound, on σ1 receptor [2], the “Selectivity ratio VAChT/ σ1” value is reported as 7.2 and the Ki was determined as 17.2 ± 4 nM.
`O=C(Cc1ccccc1F)NC1CCC(Cc2ccccc2)CC1` (centres unmarked) [YUN-122, N-(4-benzylcyclohexyl)-2-(2-fluorophenyl)acetamide]: the Ki was 667 ± 98 nM on σ2 receptor [3] and 3.6 ± 1.1 nM on σ1 receptor [4] (reference σ1 ligand).
Turning to `CS(=O)(=O)c1ccc(C(=O)C2CCN(C3Cc4ccccc4CC3O)CC2)cc1` (racemic) [(±)-7, (±)-(1-(3-Hydroxy-1,2,3,4-tetrahydronaphthalen-2-yl)piperidin-4-yl)(4-(methyl-sulfonyl)phenyl)methanone], at σ2 receptor [1], the “Selectivity ratio VAChT/ σ2” value is > 185 and the Ki was > 1000 nM. Further, on σ1 receptor [2], the “Selectivity ratio VAChT/ σ1” value stood at 3.1 and the Ki stood at 16.5 ± 2.1 nM.
Taken in the same sequence, the figures for `O=C(c1ccc(SCCCF)cc1)C1CCN(C2Cc3ccccc3CC2O)CC1` (racemic) [(±)-14b, (±)-(4-((3-Fluoropropyl)thio)phenyl)(1-(3-hydroxy-1,2,3,4-tetrahydronaph-thalen-2-yl)piperidin-4-yl)methanone] were > 430, > 1000 nM, 17.7 and 40.8 ± 4.1 nM.
As to (-)-vesamicol [reference compound], the Ki on σ2 receptor [1] turned out to be 34.5 ± 2 nM.
With `O=C(c1ccc(SCCF)cc1)C1CCN(C2Cc3ccccc3CC2O)CC1` (racemic) [(±)-14a, (±)-(4-((2-Fluoroethyl)thio)phenyl)(1-(3-hydroxy-1,2,3,4-tetrahydronaph-thalen-2-yl)piperidin-4-yl)methanone], at σ2 receptor [1], the “Selectivity ratio VAChT/ σ2” value is reported as > 420. The “Selectivity ratio VAChT/ σ1” value on σ1 receptor [2] was 7.0.
Consider `O[C@@H]1Cc2cccc(OCCF)c2C[C@H]1N1CCC(c2ccccc2)CC1` [(-)-FEOBV], for which, at σ1 receptor [2], the “Selectivity ratio VAChT/ σ1” value is 10.7. Besides, the inhibition constant (Ki) was 209 ± 94 nM on σ1 receptor [4] (reference ligand) and 19.6 ± 1.1 nM at human VAChT.
